The values below come from BindingDB's records for doi:10.1016/j.bmc.2007.07.029 (Polish Academy of Sciences, 2007).

Common to all, as to assay: Radioligand Binding Assay (Ki)
Assay [1] deals with T1, 5-hydroxytryptamine receptor 1A (Rattus norvegicus, UniProt P19327).
T1 sequence (P19327 whole entry): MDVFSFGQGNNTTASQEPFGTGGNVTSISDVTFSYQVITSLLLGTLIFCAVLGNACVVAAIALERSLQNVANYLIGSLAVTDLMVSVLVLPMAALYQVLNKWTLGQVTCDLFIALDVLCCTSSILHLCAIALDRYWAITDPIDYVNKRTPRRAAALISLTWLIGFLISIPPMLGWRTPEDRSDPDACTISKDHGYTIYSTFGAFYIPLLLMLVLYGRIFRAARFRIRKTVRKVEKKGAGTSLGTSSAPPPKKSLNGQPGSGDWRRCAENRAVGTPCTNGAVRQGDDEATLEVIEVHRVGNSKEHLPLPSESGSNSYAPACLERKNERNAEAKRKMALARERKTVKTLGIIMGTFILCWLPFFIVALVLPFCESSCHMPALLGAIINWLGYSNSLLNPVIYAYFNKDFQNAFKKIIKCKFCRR
The conditions noted are these: pH 7.4; 37 °C. The protocol: (§1) Competition experiments were performed in the presence radioligand with membrane protein and test compounds. After incubation, the reaction stopped by rapid filtration onto a 96-well GF/B filter. Radioactivity retained on the filters was measured by liquid scintillation counting (Beckman LS 6500 apparatus). IC50 values for test compounds were determined from nonlinear regression analysis of data collected from ligand binding experiments. The inhibition constant (Ki) was calculated from IC50 value by the Cheng and Prusoff equation.

Assay [2] has as its target 5-hydroxytryptamine receptor 7 (Homo sapiens, UniProt P34969). The conditions noted are these: pH 7.4; 37 °C. On the procedure: as §1
Another assay deals with D(2) dopamine receptor (Rattus norvegicus, UniProt P61169). The protocol: as §1
D(2) dopamine receptor, sequence (P61169 whole entry): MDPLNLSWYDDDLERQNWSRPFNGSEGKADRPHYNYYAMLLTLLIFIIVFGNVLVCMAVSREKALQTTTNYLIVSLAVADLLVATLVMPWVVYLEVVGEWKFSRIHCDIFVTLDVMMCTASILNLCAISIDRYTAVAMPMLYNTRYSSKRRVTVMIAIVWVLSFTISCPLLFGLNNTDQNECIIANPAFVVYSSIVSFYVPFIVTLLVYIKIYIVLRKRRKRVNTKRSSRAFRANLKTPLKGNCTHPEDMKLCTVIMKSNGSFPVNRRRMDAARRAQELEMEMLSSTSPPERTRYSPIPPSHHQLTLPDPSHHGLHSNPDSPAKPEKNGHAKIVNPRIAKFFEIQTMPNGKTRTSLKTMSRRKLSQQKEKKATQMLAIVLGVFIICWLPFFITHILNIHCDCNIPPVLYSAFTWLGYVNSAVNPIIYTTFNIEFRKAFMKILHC
Assay [3] deals with T2, Alpha-1B adrenergic receptor (Rattus norvegicus, UniProt P15823).
T2 sequence (P15823 whole entry): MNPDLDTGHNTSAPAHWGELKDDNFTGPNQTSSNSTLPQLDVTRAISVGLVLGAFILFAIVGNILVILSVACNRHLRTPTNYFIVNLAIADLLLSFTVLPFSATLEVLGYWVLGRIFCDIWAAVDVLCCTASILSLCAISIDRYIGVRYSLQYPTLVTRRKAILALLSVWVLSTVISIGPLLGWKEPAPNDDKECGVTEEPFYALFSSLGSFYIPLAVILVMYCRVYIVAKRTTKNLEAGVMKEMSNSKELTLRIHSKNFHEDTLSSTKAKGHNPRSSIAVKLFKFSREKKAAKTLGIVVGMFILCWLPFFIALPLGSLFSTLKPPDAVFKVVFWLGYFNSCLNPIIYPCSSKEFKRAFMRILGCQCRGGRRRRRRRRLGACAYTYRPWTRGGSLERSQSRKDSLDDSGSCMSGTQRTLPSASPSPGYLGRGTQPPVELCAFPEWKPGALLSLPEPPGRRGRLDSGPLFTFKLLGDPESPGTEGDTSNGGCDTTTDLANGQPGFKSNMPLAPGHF
On the procedure: as §1

5-hydroxytryptamine receptor 7, sequence (P34969 whole entry): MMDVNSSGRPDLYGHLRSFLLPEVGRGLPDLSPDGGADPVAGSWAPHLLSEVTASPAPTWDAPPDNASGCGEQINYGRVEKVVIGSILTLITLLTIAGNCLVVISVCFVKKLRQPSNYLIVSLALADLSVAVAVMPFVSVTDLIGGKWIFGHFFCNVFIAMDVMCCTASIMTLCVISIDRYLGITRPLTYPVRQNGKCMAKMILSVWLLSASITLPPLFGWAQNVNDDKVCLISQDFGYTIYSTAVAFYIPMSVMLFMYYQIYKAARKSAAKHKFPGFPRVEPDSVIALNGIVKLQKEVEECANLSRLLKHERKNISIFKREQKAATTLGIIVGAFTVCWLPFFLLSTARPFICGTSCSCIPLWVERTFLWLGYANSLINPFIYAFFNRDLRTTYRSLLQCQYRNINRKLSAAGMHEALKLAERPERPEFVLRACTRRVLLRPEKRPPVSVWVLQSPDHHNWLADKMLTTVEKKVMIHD

One may read the Ki as a measure of affinity in units of concentration, obtained from inhibition or displacement. For the compound `O=C1CCC(=O)N1C1CCC(N2CCN(c3cccc(C(F)(F)F)c3)CC2)CC1` (centres undefined) [1-(m-trifluorophenyl)piperazine, 4], the Ki in assay [1] is 4 nM; in assay [2], 1820 nM; on D(2) dopamine receptor it was greater than 25000 nM; in assay [3], 505 nM.
